This note sets out measurements from ChEMBL document CHEMBL5260829, “Recent advances in the discovery of small molecule c-Met Kinase inhibitors” (Eur J Med Chem, 2018).

The IC50 is the concentration that inhibits the measured activity by half. The Cmax is the peak of the concentration-time curve. For orientation: half-life means the time needed for the level to fall by half in the phase considered. Read a high half-life as slow decline. A word on the AUC: it is concentration integrated over time. Read a low AUC as low exposure. For orientation: bioavailability means the share of a dose that reaches the circulation, judged against a reference dose that is usually intravenous. By inhibition is commonly meant the drop in the measured response relative to a control, in per cent.

The test system of series [1] is BaF3. Briefly: cells. Particulars: Mus musculus, BaF3, 72 h.
In the next series the test system is HUVEC. Kind of series: cells. The conditions noted are these: Homo sapiens, 72 h.
Series [2] has as its system EBC-1. Briefly: cells. Particulars: Homo sapiens, EBC-1, 72 h.
The subject of series [3] is MKN-45. Briefly: cells. Particulars: Homo sapiens, MKN-45, 72 h.
In series [4] the test system is HT-29. Briefly: Antiproliferative activity against human HT-29 cells assessed as reduction in cell proliferation incubated for 72 hrs by MTT assay. Particulars: HT-29, 72 h. Type of series: functional, cell-based. On the technique in general: Tetrazolium dyes change colour on reduction, which living cells bring about.
The subject of series [5] is MKN-45. Briefly: cells. The conditions noted are these: Homo sapiens, MKN-45, 72 h. The source holds these as a separate data set.
Series [6] addresses T1, Hepatocyte growth factor receptor (Homo sapiens, UniProt P08581). Kind of series: Inhibition of c-Met (unknown origin) kinase activity using poly(Glu-Tyr) at 4:1 ratio as substrate in presence of ATP incubated for 30 mins by HTRF assay. A general note: In TR-FRET formats the signal depends on donor and acceptor labels being close together.
The nature of series [7]: Cmax in mouse at 10 mg/kg, po. The format is ADME, organism-based. On the set-up: dose 10 mg/kg, route po. Particulars: in vivo.
The nature of series [8]: Half life in mouse at 10 mg/kg, po. The format is ADME, organism-based. The conditions noted are these: in vivo.
A short description of series [9]: AUC in mouse at 10 mg/kg, po. Type of series: ADME, organism-based. On the set-up: dose 10 mg/kg, route po. The conditions noted are these: in vivo.
Series [10] relates to NIH3T3. Briefly: In vivo antitumor activity against mouse NIH3T3 cells expressing […] protein xenografted in nude mouse assessed as tumor growth inhibition at 100 mg/kg,po for 11 days. The conditions noted are these: NIH3T3, 264 h, time 11 day, read-out: TGI. Type of series: functional.
Another series has as its system SNU-5. Briefly: cells. Particulars: Homo sapiens, SNU-5, 72 h.
Series [11] relates to NIH3T3. Kind of series: cells. The conditions noted are these: Mus musculus, NIH3T3, 72 h.
Series [12] has as its system BaF3. Briefly: cells. The conditions noted are these: Mus musculus, BaF3, 72 h. This is another data set of the same source.
Series [13] is described as follows: Oral bioavailability in mouse at 10 mg/kg. Particulars: in vivo. The format is ADME, organism-based.
The target of series [14] is T1, Hepatocyte growth factor receptor. Kind of series: Inhibition of recombinant c-Met (unknown origin) using peptide as substrate in presence of ATP by TR-FRET assay.
The test system of another series is Hs746T. Briefly: Antiproliferative activity against human Hs746T cells assessed as reduction in cell viability incubated for 72 hrs by WST-8 assay. Type of series: functional, cell-based.
Series [15] deals with HepG2. Kind of series: Antiproliferative activity against human HepG2 cells assessed as reduction in cell proliferation incubated for 48 hrs by MTT assay. The format is functional, cell-based. The conditions noted are these: HepG2, 48 h.
In a further series the test system is Bel-7402. Kind of series: Antiproliferative activity against human Bel-7402 cells assessed as reduction in cell viability incubated for 24 hrs by MTT assay. Type of series: functional, cell-based. The conditions noted are these: Bel-7402, 24 h.
Series [16] deals with T1, Hepatocyte growth factor receptor. Kind of series: Inhibition of His6-tagged recombinant human c-Met using 5FAM-KKK-SPGEYVNIGFG-NH2 as substrate in presence of ATP incubated for 60 mins by AiphaQuest assay.
Series [17] relates to A549. Kind of series: Antiproliferative activity against human A549 cells assessed as reduction in cell viability incubated for 24 hrs by MTT assay. The format is functional, cell-based. Particulars: A549, 24 h.
The subject of series [18] is HepG2. Briefly: Antiproliferative activity against human HepG2 cells assessed as reduction in cell viability incubated for 24 hrs by MTT assay. The format is functional, cell-based. Particulars: HepG2, 24 h.
Another series has as its system HeLa. Kind of series: Antiproliferative activity against human HeLa cells assessed as reduction in cell viability incubated for 24 hrs by MTT assay. The format is functional, cell-based.
The target in series [19] is T1, Hepatocyte growth factor receptor. Briefly: Inhibition of c-Met (unknown origin) using poly(Glu-Tyr) at 4:1 ratio as substrate in presence of ATP incubated for 60 mins by ELISA.
Series [20] concerns MKN-45. Kind of series: Antiproliferative activity against human MKN-45 cells assessed as reduction in cell proliferation incubated for 72 hrs by CellTiter-Glo luminescent assay. The conditions noted are these: MKN-45, 72 h. The format is functional, cell-based. On the technique in general: Cellular ATP, detected with luciferase, serves as a proxy for viable cell number.
The subject of series [21] is EBC-1. Kind of series: Antiproliferative activity against human EBC-1 cells assessed as reduction in cell proliferation incubated for 72 hrs by CellTiter-Glo luminescent assay. Particulars: EBC-1, 72 h. Type of series: functional, cell-based.
Series [22] deals with T1, Hepatocyte growth factor receptor. Briefly: Inhibition of c-Met (unknown origin) kinase activity using peptide as substrate in presence of ATP incubated for 1 hrs by ELISA.
The test system of series [23] is BaF3. Kind of series: Antiproliferative activity against mouse BaF3 cells expressing […] protein assessed as reduction in cell proliferation incubated for 72 hrs by Cell Titer-Glo luminescence assay. Particulars: BaF3, 72 h. The format is functional, cell-based.
In series [24] the target is T1, Hepatocyte growth factor receptor. Briefly: Inhibition of c-Met (unknown origin).
Series [25] has as its system A549. Briefly: Antiproliferative activity against human A549 cells assessed as reduction in cell proliferation incubated for 48 hrs by sulforhodamine B assay. The conditions noted are these: A549, 48 h. Type of series: functional, cell-based.
Series [26] deals with T1, Hepatocyte growth factor receptor. Kind of series: Inhibition of c-Met (unknown origin) kinase activity using peptide as substrate in presence of 33P-ATP incubated for 20 to 30 mins by scintillation counter analysis.
Series [27] relates to HT-29. Briefly: Antiproliferative activity against human HT-29 cells assessed as reduction in cell proliferation incubated for 48 hrs by sulforhodamine B assay. Type of series: functional, cell-based. Particulars: HT-29, 48 h.
Series [28] relates to MKN-45. Briefly: Antiproliferative activity against human MKN-45 cells assessed as reduction in cell proliferation incubated for 48 hrs by sulforhodamine B assay. Particulars: MKN-45, 48 h. The format is functional, cell-based.
For series [29], the system named is EBC-1. Briefly: cells. The conditions noted are these: Homo sapiens, EBC-1, 72 h. This is another data set of the same source.
In series [30] the test system is MKN-45. Briefly: Antiproliferative activity against human MKN-45 cells assessed as reduction in cell proliferation incubated for 48 hrs. The format is functional, cell-based. The conditions noted are these: MKN-45, 48 h.
Series [31] addresses T1, Hepatocyte growth factor receptor. Briefly: Inhibition of c-Met (unknown origin) kinase activity using biotinylated poly-tyrosine as substrate in presence of ATP incubated for 1 hr by AlphaQuest analysis.

Structures are written as SMILES.

T1 sequence (P08581 whole entry): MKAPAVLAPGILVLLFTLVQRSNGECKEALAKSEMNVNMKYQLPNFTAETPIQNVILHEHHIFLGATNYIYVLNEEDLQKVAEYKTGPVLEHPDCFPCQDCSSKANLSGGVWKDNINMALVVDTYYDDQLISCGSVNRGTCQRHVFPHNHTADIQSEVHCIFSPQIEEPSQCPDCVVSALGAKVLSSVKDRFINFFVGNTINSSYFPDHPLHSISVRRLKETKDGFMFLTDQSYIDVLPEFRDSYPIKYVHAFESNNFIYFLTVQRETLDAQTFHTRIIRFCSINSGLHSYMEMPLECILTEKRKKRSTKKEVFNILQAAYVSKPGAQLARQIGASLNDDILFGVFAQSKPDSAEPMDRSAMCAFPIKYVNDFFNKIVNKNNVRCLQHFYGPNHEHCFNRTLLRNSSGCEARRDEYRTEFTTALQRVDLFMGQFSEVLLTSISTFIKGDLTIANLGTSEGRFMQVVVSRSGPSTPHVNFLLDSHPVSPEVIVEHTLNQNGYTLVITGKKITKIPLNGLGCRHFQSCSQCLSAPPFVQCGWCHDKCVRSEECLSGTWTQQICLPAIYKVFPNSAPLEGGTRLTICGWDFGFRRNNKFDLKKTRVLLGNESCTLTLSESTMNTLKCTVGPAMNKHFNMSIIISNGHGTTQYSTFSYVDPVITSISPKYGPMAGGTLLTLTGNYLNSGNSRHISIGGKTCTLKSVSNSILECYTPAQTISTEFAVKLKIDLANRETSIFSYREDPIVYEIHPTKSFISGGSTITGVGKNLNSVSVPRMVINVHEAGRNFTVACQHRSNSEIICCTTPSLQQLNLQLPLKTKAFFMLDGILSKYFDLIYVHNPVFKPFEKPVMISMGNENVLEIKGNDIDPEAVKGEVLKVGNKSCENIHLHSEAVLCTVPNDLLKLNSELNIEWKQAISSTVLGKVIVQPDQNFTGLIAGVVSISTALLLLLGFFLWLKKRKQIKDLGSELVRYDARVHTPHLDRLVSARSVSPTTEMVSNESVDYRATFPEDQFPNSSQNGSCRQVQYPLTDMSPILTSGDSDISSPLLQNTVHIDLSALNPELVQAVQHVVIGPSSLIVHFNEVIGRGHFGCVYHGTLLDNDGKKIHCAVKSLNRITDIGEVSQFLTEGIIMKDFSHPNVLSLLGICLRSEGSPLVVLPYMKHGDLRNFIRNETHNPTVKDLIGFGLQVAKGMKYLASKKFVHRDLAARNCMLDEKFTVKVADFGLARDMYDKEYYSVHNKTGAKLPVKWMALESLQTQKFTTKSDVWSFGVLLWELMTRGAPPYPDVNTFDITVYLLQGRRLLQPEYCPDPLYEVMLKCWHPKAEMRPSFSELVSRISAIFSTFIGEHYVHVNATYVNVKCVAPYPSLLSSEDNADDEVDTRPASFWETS

As for `Cc1c(C(=O)Nc2ccc(Oc3ccnc(-c4nncn4CCCN4CCN(C)CC4)c3)c(F)c2)c(=O)n(-c2ccccc2)n1C`, the 50% inhibitory concentration (IC50) in the series on BaF3 [1] stood at 0.13 µM; in the series on HUVEC, 0.3 µM.
As for `COc1ccc2c(OCc3nnc4ncc(-c5ccccc5)nn34)ccnc2c1`, the IC50 with EBC-1 [2] stood at 0.012 µM; with MKN-45 [3], 0.021 µM.
For the compound `COc1cc2c(Oc3ccc(N/C=C(\C#N)C(=O)Nc4ccc(C)cc4)cc3F)ccnc2cc1OCCCN1CCN(C)CC1`, the IC50 was 0.04 µM in the series with HT-29 [4] and 0.39 µM in the series with MKN-45 [3].
`COc1cc2nccc(Oc3ccc(NC(=O)C4(Cl)CCCN(c5ccc(F)cc5)C4=O)cc3F)c2cc1OC` (stereo not given): in the series with MKN-45 [5], the concentration for half-maximal inhibition (IC50) was 0.57 µM.
For `COc1cc2c(Oc3ccc(NC(=O)/C=C/S(=O)(=O)c4ccccc4)cc3F)ccnc2cc1OCCCN1CCN(C)CC1`, the half-inhibitory concentration (IC50) in the series on MKN-45 [3] was determined as 0.45 µM.
Consider `COc1cc2c(Oc3ccc(NC(=O)Nc4nc5c(C)ccc(C)c5s4)cc3F)ccnc2cc1OCCCN1CCN(C)CC1`, for which the IC50 in series [6] is 0.0176 µM; in the series with MKN-45 [3] it was 0.06 µM.
`O=C(Nc1ccc(Oc2ccnc3[nH]c(-c4ccsc4)nc23)cc1)c1cccn(-c2ccc(F)cc2)c1=O` yielded a Cmax in series [7] of 2170 ng/mL. This compound gave a half-life in series [8] of 2.07 h. In addition, the area under the curve (AUC) in series [9] was determined as 6280 ng·h/mL. Also, in the series on NIH3T3 [10], the inhibition in vivo at 100 mg/kg stood at 30.9%. Besides, the IC50 in the series on SNU-5 was determined as 5.3 µM; in the series on NIH3T3 [11], 1.6 µM; with MKN-45 [3], 4.3 µM; in the series with BaF3 [12], 0.59 µM. Besides, the bioavailability in [13] is 28.3%.
With `Cn1cc(-c2ccc(=O)n(C[C@@H]3CN(c4ncc(OCC5CCNCC5)cn4)CCO3)n2)cn1`, the IC50 was 0.019 µM in series [14] and 3.17 µM with Hs746T.
Regarding `COc1cc2c(Oc3ccc(NC(=O)c4cn(-c5ccccc5C(F)(F)F)c5ccccc5c4=O)cc3F)ccnc2cc1OCCCN1CCCCC1`, the concentration for half-maximal inhibition (IC50) stood at 0.00135 µM in series [6] and 0.01 µM with MKN-45 [3].
Take `CC(C)(C)OC(=O)N1CCc2c(sc3ncnc(Oc4ccc(NC(=O)C5(C(=O)Nc6ccc(F)cc6)CC5)cc4F)c23)C1`: the half-inhibitory concentration (IC50) in the series with HepG2 [15] was found to be 1.7 µM.
Consider `CC(C)=C1C/C=C(\C)CC/C=C(\C)CC1OS(=O)(=O)c1ccc(C)cc1` (stereo not given), for which the half-maximal inhibitory concentration (IC50) in the series on Bel-7402 is 71.8 µM; in the series on A549 [17], 84.5 µM; in the series on HepG2 [18], 56.2 µM; with HeLa, 88.6 µM. In addition, in [16], the inhibition worked out at 56%.
For `COC(=O)c1ccc(N2NC(=O)/C(=C/c3ccc(-c4ccc(Cl)c(C(=O)O)c4)o3)C2=O)cc1`, the IC50 in [19] came out at 9.5 µM.
With `Fc1ccc(Cl)c(Sc2n[nH]c3ncc(-c4cnn(C5CCNCC5)c4)cc23)c1Cl`, the IC50 in the series with MKN-45 [20] is 0.329 µM; in the series with EBC-1 [21], 0.479 µM.
`Clc1ccc(-c2cn3cccc(COc4nnc5ccc(Cl)nn45)c3n2)c(Cl)c1`: the results for the IC50 (in [22]; with BaF3 [23]) were 0.0534 µM and 0.253 µM, respectively.
`c1cnc2ccc(Cn3nnc4ncc(-c5ccc6[nH]c7c(c6c5)CNCC7)nc43)cc2c1` gave a 50% inhibitory concentration (IC50) in [24] of 0.0145 µM.
On to `CC(C)=C1C/C=C(\C)CC/C=C(\C)CC1OC(=O)c1ccc(C)cc1` (stereo not given), for which the 50% inhibitory concentration (IC50) stood at 75.9 µM with Bel-7402, 84.9 µM in the series on A549 [17], 68.2 µM with HepG2 [18] and 83.6 µM in the series on HeLa.
With `O=C(CSc1nc(=O)c(/C=C/c2ccco2)n[nH]1)N/N=C/c1cccs1`, the concentration for half-maximal inhibition (IC50) in the series with A549 [25] came out at 0.02 µM; in series [26], 4.31 µM; in the series with HT-29 [27], 0.03 µM; in the series with MKN-45 [28], 0.06 µM.
For the compound `COc1cc2c(Oc3ccc(N/C=C4\C(=O)N(c5ccccc5C(F)(F)F)N=C4C)cc3F)ccnc2cc1OCCCN1CCOCC1`, the half-maximal inhibitory concentration (IC50) stood at 0.0022 µM in series [6] and 0.03 µM with MKN-45 [3].
As for `Cc1ccc(N2NC(=O)/C(=C/c3ccc(-c4cc([N+](=O)[O-])ccc4O)o3)C2=O)cc1C`, the IC50 in [19] amounted to 0.46 µM.
In the case of `CNC(=O)c1ccc(-c2ccc3ncc(S(=O)(=O)n4ccc5cnccc54)n3c2)cc1F`, the IC50 in the series on MKN-45 [5] is 0.0099 µM; in the series with EBC-1 [29], 0.0198 µM.
For the compound `OC1CCC(n2cc(-c3ncc4ncn(Cc5ccc6ncccc6c5)c4n3)cn2)CC1` (stereo not given), the half-inhibitory concentration (IC50) in the series on MKN-45 [30] amounted to 125 µM; in [31], 10.4 µM.
